≈ marks a conversion by molar mass, not a printed value. Each block holds one compound with its values, some of them ahead of it.
Key:
Experiment in all cases: ≥ marks a high value that may be exact or a test limit, other limits are often not marked, values filed in µg/mL are converted to µM
[1] = system: Micrococcus luteus BCRC 11034
[2] = system: Staphylococcus aureus BCRC 10780
[3] = system: Vibrio alginolyticus
[4] = system: Streptococcus pneumoniae BCRC 10794
[5] = system: Vibrio vulnificus 204
[6] = system: Streptococcus agalactiae
[7] = system: Staphylococcus aureus
[8] = system: Vibrio harveyi BCRC 13812
[9] = system: Staphylococcus sp. BCRC 10451
[10] = system: Pseudomonas aeruginosa
[11] = system: Klebsiella aerogenes ATCC 13048
[12] = system: Staphylococcus epidermidis ATCC 12228
[13] = system: Escherichia coli DL7
[14] = system: Bacillus subtilis PS832
[15] = system: Staphylococcus aureus ATCC 33591
[16] = system: Escherichia coli ATCC 25922
[17] = system: Enterococcus faecium ATCC 700221
[18] = system: Pseudomonas aeruginosa ATCC 27853
[19] = system: Candida albicans ATCC 200955
[20] = system: Candida krusei ATCC 6258
[21] = system: Staphylococcus aureus ATCC 25923
[22] = system: Candida parapsilosis ATCC 22019
[23] = system: Candida albicans ATCC 90028
[24] = system: Cryptococcus neoformans ATCC 90012
[25] = system: Escherichia coli ATCC 35218
[26] = system: Staphylococcus aureus ATCC 25325
[27] = system: Staphylococcus aureus ATCC 25023
[28] = system: Salmonella enterica subsp. enterica serovar Typhi DMST 22842
[29] = system: Vibrio cholerae non-O1
[30] = system: Vibrio cholerae non-O139
[31] = system: Klebsiella pneumoniae PTCC 1388
[32] = system: Escherichia coli HP101BA 7601c
[33] = system: Staphylococcus aureus PTCC 1431
[34] = system: Bacillus cereus PTCC 1247
[35] = system: Cronobacter sakazakii DPC 6440
[36] = system: Listeria monocytogenes LO28

MIC [1]: 9 µM (≈ 25.4 µg/mL)
MIC [2]: 18 µM (≈ 50.7 µg/mL)
MIC [3]: 4.5 µM (≈ 12.7 µg/mL)
MIC [4]: 18 µM (≈ 50.7 µg/mL)
MIC [5]: 18 µM (≈ 50.7 µg/mL)
MIC [6]: 18 µM (≈ 50.7 µg/mL)
MIC [7]: 4.5 µM (≈ 12.7 µg/mL)
MIC [8]: 4.5 µM (≈ 12.7 µg/mL)
MIC [9]: 2.25 µM (≈ 6.34 µg/mL)
MIC [10]: 4.5 µM (≈ 12.7 µg/mL)
SMILES: CC[C@H](C)[C@H](NC(=O)[C@H](CCCCN)NC(=O)[C@@H]1CCCN1C(=O)[C@@H](NC(=O)[C@H](CC(C)C)NC(=O)[C@H](C)NC(=O)[C@H](Cc1ccccc1)NC(=O)[C@H](Cc1ccccc1)NC(=O)CNC(C)=O)[C@@H](C)CC)C(=O)N[C@H](C(=O)N[C@@H](CO)C(=O)N[C@@H](CO)C(=O)N1CCC[C@H]1C(=O)N[C@@H](CC(C)C)C(=O)N[C@@H](Cc1ccccc1)C(=O)N[C@@H](CCCCN)C(=O)N[C@H](C(=O)N[C@@H](CC(C)C)C(=O)N[C@@H](CC(C)C)C(=O)N[C@@H](CO)C(=O)N[C@@H](C)C(=O)N[C@H](C(=O)NCC(=O)N[C@@H](CO)C(=O)N[C@@H](C)C(=O)N[C@@H](CC(C)C)C(=O)N[C@@H](CO)C(N)=O)C(C)C)[C@@H](C)O)[C@@H](C)CC [GFFALIPKIISSPLFKTLLSAVGSALS]

MIC [20]: 8 µM (≈ 18.3 µg/mL)
MIC [16]: 4 µM (≈ 9.16 µg/mL)
MIC [21]: 1 µM (≈ 2.29 µg/mL)
MIC [22]: 4 µM (≈ 9.16 µg/mL)
MIC [18]: 8 µM (≈ 18.3 µg/mL)
MIC [23]: 8 µM (≈ 18.3 µg/mL)
MIC [24]: 8 µM (≈ 18.3 µg/mL)
SMILES: CC[C@H](C)[C@H](NC(=O)[C@H](Cc1ccccc1)NC(=O)[C@H](CC(N)=O)NC(=O)[C@H](CCCCN)NC(=O)[C@H](C)NC(=O)[C@@H](NC(=O)[C@H](CC(N)=O)NC(=O)[C@H](Cc1ccccc1)NC(=O)[C@H](C)NC(=O)[C@H](C)NC(=O)[C@H](CCCCN)NC(=O)CNC(=O)[C@@H](NC(=O)[C@H](CCCCN)NC(=O)[C@H](CCCCN)NC(=O)[C@H](C)NC(=O)[C@@H](NC(=O)[C@H](CC(=O)O)NC(=O)[C@H](CC(C)C)NC(=O)[C@H](Cc1c[nH]c2ccccc12)NC(=O)CN)C(C)C)[C@@H](C)CC)C(C)C)C(N)=O [GWLDVAKKIGKAAFNVAKNFI]

MIC [25]: 16.1 µM (≈ 24.4 µg/mL)
MIC [26]: 20.2 µM (≈ 30.6 µg/mL)
MIC [18]: 29.5 µM (≈ 44.7 µg/mL)
SMILES: CC(C)C[C@H](NC(=O)[C@H](C)NC(=O)[C@H](C)NC(=O)[C@H](CCCCN)NC(=O)CNC(=O)[C@@H](NC(=O)[C@H](Cc1cnc[nH]1)NC(=O)[C@H](CCCCN)NC(=O)CNC(=O)[C@@H](NC(=O)[C@H](Cc1cnc[nH]1)NC(=O)[C@H](C)NC(=O)[C@H](C)NC(=O)[C@H](CCCCN)NC(=O)[C@@H](N)CCCCN)C(C)C)C(C)C)C(=O)O [KKAAHVGKHVGKAAL]

Second part, the compound before the results:

SMILES: CC[C@H](C)[C@H](NC(=O)[C@H](CCCN=C(N)N)NC(=O)[C@H](CCCCN)NC(=O)[C@H](CC(C)C)NC(=O)[C@H](CC(C)C)NC(=O)CNC(=O)[C@H](Cc1cnc[nH]1)NC(=O)CNC(=O)CN)C(=O)N[C@@H](CCCCN)C(=O)N[C@H](C(=O)N[C@@H](CC(C)C)C(=O)N[C@@H](CC(C)C)C(N)=O)[C@@H](C)O [GGHGLLKRIKTLL]
MIC [11]: ≥ 32 µM
MIC [12]: 8 µM (≈ 11.2 µg/mL)
MIC [13]: 4 µM (≈ 5.62 µg/mL)
MIC [14]: 2 µM (≈ 2.81 µg/mL)

SMILES: CC[C@H](C)[C@H](NC(=O)[C@H](CCCCN)NC(=O)[C@H](CCCCN)NC(=O)[C@H](CC(C)C)NC(=O)[C@H](CC(C)C)NC(=O)CN)C(=O)N[C@@H](CCCCN)C(=O)N[C@@H](CCCCN)C(=O)N[C@@H](CC(C)C)C(=O)N[C@@H](CC(C)C)C(N)=O [GLLKKIKKLL]
MIC [15]: ≥ 256 µM
MIC [16]: 25 µM (≈ 28.8 µg/mL)
MIC [17]: ≥ 56.9 µM
MIC [18]: 28.4 µM (≈ 32.7 µg/mL)
MIC [19]: 28.4 µM (≈ 32.7 µg/mL)

SMILES: CC(C)C[C@H](NC(=O)[C@H](CCCN=C(N)N)NC(=O)[C@H](CC(C)C)NC(=O)[C@H](CC(C)C)NC(=O)[C@H](CC(C)C)NC(=O)[C@H](CC(C)C)NC(=O)[C@H](CC(C)C)NC(=O)[C@H](CCCCN)NC(=O)[C@H](CCCN=C(N)N)NC(=O)[C@@H](N)CC(C)C)C(N)=O [LRKLLLLLRL]
MIC [27]: 25.6 µM (≈ 32 µg/mL)

SMILES: NC(=O)[C@H](Cc1c[nH]c2ccccc12)NC(=O)[C@H](Cc1c[nH]c2ccccc12)NC(=O)[C@H](Cc1c[nH]c2ccccc12)NC(=O)[C@H](CCCN=C(N)N)NC(=O)[C@H](CCCN=C(N)N)NC(=O)[C@H](Cc1c[nH]c2ccccc12)NC(=O)[C@H](Cc1c[nH]c2ccccc12)NC(=O)[C@H](CCCN=C(N)N)NC(=O)[C@H](Cc1c[nH]c2ccccc12)NC(=O)[C@H](Cc1c[nH]c2ccccc12)NC(=O)[C@@H](N)CCCN=C(N)N [RWWRWWRRWWW]
MIC [28]: ≥ 46.8 µM
MIC [29]: ≥ 46.8 µM
MIC [30]: ≥ 46.8 µM
MIC [12]: > 46.8 µM
MIC [21]: > 46.8 µM

SMILES: CC[C@H](C)[C@H](NC(=O)[C@H](Cc1cnc[nH]1)NC(=O)[C@H](CCC(N)=O)NC(=O)[C@H](CCSC)NC(=O)[C@H](CCSC)NC(=O)[C@H](CCC(=O)O)NC(=O)[C@H](C)NC(=O)[C@H](C)NC(=O)[C@@H](NC(=O)[C@H](CO)NC(=O)[C@H](C)NC(=O)[C@@H](NC(=O)[C@H](Cc1ccccc1)NC(=O)[C@@H]1CCCN1C(=O)[C@@H](NC(=O)[C@@H](N)C(C)C)[C@@H](C)CC)C(C)C)C(C)C)C(=O)N[C@@H](Cc1ccccc1)C(=O)N[C@H]1CSSC[C@@H](C(=O)O)NC(=O)[C@H](CCCCN)NC(=O)[C@H](CCCN=C(N)N)NC(=O)[C@H](CO)NC(=O)[C@H](C)NC(=O)[C@H](C)NC1=O [VIPFVASVAAEMMQHIFCAASRKC]
MIC [31]: 5.36 µM (≈ 14 µg/mL)
MIC [32]: 3.06 µM (≈ 7.99 µg/mL)
MIC [33]: 6.51 µM (≈ 17 µg/mL)
MIC [34]: 4.6 µM (≈ 12 µg/mL)

SMILES: CC[C@H](C)[C@H](NC(=O)[C@@H](N)Cc1c[nH]c2ccccc12)C(=O)N[C@@H](CCC(N)=O)C(=O)N1CCC[C@H]1C(=O)N[C@@H](CCCCN)C(=O)N[C@H](C(=O)N[C@@H](CCCCN)C(=O)N[C@H](C(=O)N[C@H](C(=O)N1CCC[C@H]1C(=O)N[C@@H](Cc1ccc(O)cc1)C(=O)N[C@@H](C)C(=O)N[C@@H](CCCN=C(N)N)C(=O)N[C@@H](Cc1ccc(O)cc1)C(=O)N[C@@H](CC(C)C)C(=O)O)[C@@H](C)CC)C(C)C)[C@@H](C)O [WIQPKTKVIPYARYL]
MIC [35]: ≥ 39.1 µM
MIC [36]: 19.5 µM (≈ 36.6 µg/mL)

— DBAASP
